Data set [1] can be described thus: In vitro metabolic stability in mouse liver microsomes.
For data set [2], the system named is 13 other methyltransferases. The format is biochemical. The settings on record: read-out: IC50 against 13 other methyltransferases.
The subject of data set [3] is panel of 50 representative kinases. As to the kind of experiment: Kinase selectivity panel. The format is biochemical. The settings on record: at 10,000 nM.
The subject of data set [4] is PANC-1 cells. As to the kind of experiment: Clonogenicity assay. The format is cell-based. The settings on record: 2 weeks, 0.5 or 1 µM.
The target of data set [5] is T1, G9a (Homo sapiens, UniProt Q96KQ7).
T1 sequence (Q96KQ7 1-1210): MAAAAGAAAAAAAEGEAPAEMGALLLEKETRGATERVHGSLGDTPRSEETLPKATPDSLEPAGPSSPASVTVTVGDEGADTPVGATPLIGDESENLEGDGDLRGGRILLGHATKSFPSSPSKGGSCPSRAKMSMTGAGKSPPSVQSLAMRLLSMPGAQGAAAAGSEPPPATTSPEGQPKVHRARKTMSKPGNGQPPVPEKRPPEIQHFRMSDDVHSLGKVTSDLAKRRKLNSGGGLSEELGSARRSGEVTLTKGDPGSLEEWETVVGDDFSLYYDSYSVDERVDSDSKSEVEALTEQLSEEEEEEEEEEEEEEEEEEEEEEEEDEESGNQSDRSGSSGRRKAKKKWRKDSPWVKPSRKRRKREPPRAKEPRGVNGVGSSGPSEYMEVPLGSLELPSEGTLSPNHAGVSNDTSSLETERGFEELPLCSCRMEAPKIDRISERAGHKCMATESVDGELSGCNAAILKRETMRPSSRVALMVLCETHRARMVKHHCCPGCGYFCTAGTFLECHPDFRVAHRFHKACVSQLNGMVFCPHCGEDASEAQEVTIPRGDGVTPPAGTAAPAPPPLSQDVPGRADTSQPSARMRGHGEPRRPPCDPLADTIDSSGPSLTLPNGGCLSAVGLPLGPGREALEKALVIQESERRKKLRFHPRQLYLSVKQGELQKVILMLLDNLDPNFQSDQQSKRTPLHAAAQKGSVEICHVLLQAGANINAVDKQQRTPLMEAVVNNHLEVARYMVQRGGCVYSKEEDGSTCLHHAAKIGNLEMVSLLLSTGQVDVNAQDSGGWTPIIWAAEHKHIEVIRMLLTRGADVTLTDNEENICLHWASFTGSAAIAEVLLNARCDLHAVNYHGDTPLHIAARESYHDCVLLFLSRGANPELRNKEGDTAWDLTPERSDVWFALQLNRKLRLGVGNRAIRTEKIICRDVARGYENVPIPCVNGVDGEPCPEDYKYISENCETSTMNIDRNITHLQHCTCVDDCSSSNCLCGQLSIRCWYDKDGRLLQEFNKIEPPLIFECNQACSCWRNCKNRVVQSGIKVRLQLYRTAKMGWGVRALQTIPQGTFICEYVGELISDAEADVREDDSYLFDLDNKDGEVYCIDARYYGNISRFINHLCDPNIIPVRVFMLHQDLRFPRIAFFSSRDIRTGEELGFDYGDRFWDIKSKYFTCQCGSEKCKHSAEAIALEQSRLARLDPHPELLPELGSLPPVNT
The settings on record: Km app of peptide versus inhibitor concentration.

Data set [6] concerns the target PRC2 – EZH2 (Homo sapiens, UniProt Q15910). As to the kind of experiment: biochemical.
For data set [7], the target named is T1, G9a. In words: Competition of inhibitor with cofactor SAM. The format is biochemical. The settings on record: Km app of SAM versus inhibitor concentration.
For data set [8], the system named is 44 GPCRs, transporters, and ion channels. The class given is binding.
Data set [9] deals with MDA-MB-231 cells. As to the kind of experiment: Clonogenicity assay. The format is cell-based. Particulars: 2 weeks, 0.5 or 1 µM.
Data set [10] can be described thus: Resazurin cell toxicity assay. The settings on record: human, PANC-1 cells, Cell Toxicity EC50, PANC-1 cells. The class given is cell-based.
Data set [11] is described as follows: Resazurin cell toxicity assay. Particulars: human, U2OS cells. The class given is cell-based. For orientation: Resazurin is reduced to fluorescent resorufin, in cell work by metabolically active cells.
Data set [12] is described as follows: Resazurin. Particulars: human.
Data set [13] has as its system MDA-MB-231 cells. In words: Resazurin. Particulars: MDA-MB-231 cells.

Chain of PRC2 – EZH2 (Q15910 whole entry): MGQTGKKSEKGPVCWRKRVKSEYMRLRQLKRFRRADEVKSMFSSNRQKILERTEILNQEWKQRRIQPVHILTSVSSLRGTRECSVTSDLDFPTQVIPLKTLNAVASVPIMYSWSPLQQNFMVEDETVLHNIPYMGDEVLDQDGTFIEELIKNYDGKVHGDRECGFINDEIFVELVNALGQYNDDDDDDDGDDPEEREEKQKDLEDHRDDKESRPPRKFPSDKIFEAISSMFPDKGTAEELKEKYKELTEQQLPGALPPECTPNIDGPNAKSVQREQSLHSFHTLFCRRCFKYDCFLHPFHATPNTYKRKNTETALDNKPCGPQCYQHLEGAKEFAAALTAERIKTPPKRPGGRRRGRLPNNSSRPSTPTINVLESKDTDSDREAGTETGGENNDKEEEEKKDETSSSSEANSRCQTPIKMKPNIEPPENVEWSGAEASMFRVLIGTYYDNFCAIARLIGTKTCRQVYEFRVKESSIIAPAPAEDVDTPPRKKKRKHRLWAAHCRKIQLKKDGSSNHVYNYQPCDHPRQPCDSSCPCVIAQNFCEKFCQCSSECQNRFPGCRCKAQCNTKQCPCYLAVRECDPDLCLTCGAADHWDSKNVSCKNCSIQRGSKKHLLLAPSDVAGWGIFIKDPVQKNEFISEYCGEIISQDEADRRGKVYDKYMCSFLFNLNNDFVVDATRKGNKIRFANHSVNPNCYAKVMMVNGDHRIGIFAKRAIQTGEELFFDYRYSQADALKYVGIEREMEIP
Chain of PRC2 – EZH2 (O75530 whole entry, further chain): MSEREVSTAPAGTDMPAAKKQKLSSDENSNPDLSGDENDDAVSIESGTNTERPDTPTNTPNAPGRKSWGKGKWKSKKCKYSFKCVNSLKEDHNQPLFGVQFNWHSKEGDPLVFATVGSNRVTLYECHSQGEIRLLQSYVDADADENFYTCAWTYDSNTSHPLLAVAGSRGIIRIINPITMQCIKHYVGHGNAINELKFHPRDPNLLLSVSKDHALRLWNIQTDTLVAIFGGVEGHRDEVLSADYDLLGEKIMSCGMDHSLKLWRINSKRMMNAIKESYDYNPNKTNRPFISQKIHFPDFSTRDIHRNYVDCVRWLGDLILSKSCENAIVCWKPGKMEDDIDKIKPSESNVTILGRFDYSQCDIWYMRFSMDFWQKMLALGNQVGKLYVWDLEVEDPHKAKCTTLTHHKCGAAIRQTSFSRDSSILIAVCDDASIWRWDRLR
Chain of PRC2 – EZH2 (Q15022 whole entry, further chain): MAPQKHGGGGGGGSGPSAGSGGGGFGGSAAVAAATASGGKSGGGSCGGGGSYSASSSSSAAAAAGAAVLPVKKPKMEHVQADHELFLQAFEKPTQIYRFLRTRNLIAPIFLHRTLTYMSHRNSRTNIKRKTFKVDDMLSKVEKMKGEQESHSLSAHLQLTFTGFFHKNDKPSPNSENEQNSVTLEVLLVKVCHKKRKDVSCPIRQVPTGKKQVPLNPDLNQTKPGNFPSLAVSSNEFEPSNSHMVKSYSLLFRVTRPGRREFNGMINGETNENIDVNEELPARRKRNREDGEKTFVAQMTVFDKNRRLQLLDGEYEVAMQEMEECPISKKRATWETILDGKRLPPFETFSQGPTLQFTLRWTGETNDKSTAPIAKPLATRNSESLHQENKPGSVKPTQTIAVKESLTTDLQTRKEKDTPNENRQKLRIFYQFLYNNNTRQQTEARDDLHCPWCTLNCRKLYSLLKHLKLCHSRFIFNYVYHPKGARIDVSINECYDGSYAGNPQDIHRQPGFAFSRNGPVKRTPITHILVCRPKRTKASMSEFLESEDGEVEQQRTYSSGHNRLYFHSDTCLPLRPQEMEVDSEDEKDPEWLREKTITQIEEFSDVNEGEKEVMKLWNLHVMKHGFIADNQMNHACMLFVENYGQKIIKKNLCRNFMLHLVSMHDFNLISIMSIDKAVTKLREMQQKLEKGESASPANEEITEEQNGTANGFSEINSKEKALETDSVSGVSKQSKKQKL

For the compound `COc1cc2c(NC3CCN(C(C)C)CC3)nc(C3CCCCC3)nc2cc1OCCCN1CCCC1` [Compound 5, reference compound], in data set [1], the CLint was determined as 1.0 mL/min/g liver.

As a reminder, the IC50 is the concentration that gives 50% inhibition. One may read the EC50 as the concentration giving half of the maximal effect. `COc1cc2c(NC3CCN(C(C)C)CC3)nc(N3CCC(F)(F)CC3)nc2cc1OCCCN1CCCC1` [Compound 7, 2-(4,4-Difluoropiperidin-1-yl)-N-(1-isopropylpiperidin-4-yl)-6-methoxy-7-(3-(pyrrolidin-1-yl)propoxy)quinazolin-4-amine]: the figures for the IC50 in data set [2] and in data set [6] were over 50 µM and over 5 µM, respectively. Besides, in data set [3], the “Inhibition of panel of 50 representative kinases” value is “less than 20%”. Also, the Effect on clonogenicity result in [4] is listed as “reduced clonogenicity in PANC-1 cells in a concentration-dependent manner”; in data set [9] it was “no effect on clonogenicity”. Besides, the “Mechanism of action versus peptide substrate” value in data set [5] is reported as “competitive with the peptide substrate”. Further, in [7], the “Mechanism of action versus cofactor SAM” value is on record as “non-competitive with the cofactor SAM”. Also, the “Inhibition against 5 targets of the 44-target panel” value in data set [8] is over 50%. Moreover, the “Inhibition against 39 targets of the 44-target panel” value in data set [8] was “less than 50%”. Moreover, in data set [1], the CLint is 0.5 mL/min/g liver. Moreover, the EC50 at 48 h in data set [10] and in data set [11] was over 3 µM each time.

For the compound `COc1cc2c(NC3CCN(C(C)C)CC3)nc(N3CCOCC3)nc2cc1OCCCN1CCCC1` [Compound 13, N-(1-Isopropylpiperidin-4-yl)-6-methoxy-2-morpholino-7-(3-(pyrrolidin-1-yl)propoxy)quinazolin-4-amine], the CLint in data set [1] is reported as 0.7 mL/min/g liver.

Compound `COc1cc2c(NC3CCN(C(C)C)CC3)nc(N3CC(F)(F)C(F)(F)C3)nc2cc1OCCCN1CCCC1` [Compound 15, N-(1-Isopropylpiperidin-4-yl)-6-methoxy-7-(3-(pyrrolidin-1-yl)propoxy)-2-(3,3,4,4-tetrafluoropyrrolidin-1-yl)quinazolin-4-amine] registered a CLint in data set [1] of under 0.5 mL/min/g liver.

In turn, `COc1cc2c(NC3CCN(C(C)C)CC3)nc(N3CCCCC3)nc2cc1OCCCN1CCCC1` [Compound 16] showed a 50% effective concentration (EC50) at 48 h in data set [12] of 7 µM.

As for `COc1cc2c(NC3CCN(C(C)C)CC3)nc(N3CCCCCC3)nc2cc1OCCCN1CCCC1` [Compound 17], in data set [13] (read-out: Cell Toxicity EC50, 48 h), the 50% effective concentration (EC50) came out at 5.7 µM.

Turning to `COc1cc2c(NC3CCN(C4CC4)CC3)nc(N3CCS(=O)(=O)CC3)nc2cc1OCCCN1CCCC1` [Compound 19, 4-(4-((1-Cyclopropylpiperidin-4-yl)amino)-6-methoxy-7-(3-(pyrrolidin-1-yl)propoxy)quinazolin-2-yl)thiomorpholine 1,1-dioxide], in data set [12], the EC50 at 48 h is over 50 µM.

`COc1cc2c(NC3CCN(C(C)C)CC3)nc(C3CCOCC3)nc2cc1OCCCN1CCCC1` [Compound 22, N-(1-Isopropylpiperidin-4-yl)-6-methoxy-7-(3-(pyrrolidin-1-yl)propoxy)-2-(tetrahydro-2H-pyran-4-yl)quinazolin-4-amine]: the “Tox/function Ratio” value in [13] (toxicity EC50 divided by functional IC50) is over 130. In data set [12], this compound gave an EC50 at 48 h of over 50 µM. Moreover, the CLint in data set [1] worked out at 4.7 mL/min/g liver.

The record behind these values is PMC3880643 (Journal of medicinal chemistry, 2013).
